The NIST ThermoML archive (doi:10.1021/acs.jced.5b00802)
Numbers after ± are expanded uncertainties.

How the values were obtained:
[1] = 101.33 kPa, Liquid; for speed of sound: Sing-around technique in a fixed-path interferometer; for mass density: Vibrating tube method
[2] = refractive index (Na D-line) (dimensionless); details: 101.33 kPa, Liquid, Standard Abbe refractometry
[3] = refractive index (Na D-line) (dimensionless); xn = mol fraction of the nth substance listed; details: 298.15 K, 100 kPa, Liquid, Standard Abbe refractometry
[4] = xn = mol fraction of the nth substance listed; details: 298.15 K, 100 kPa, Liquid; for speed of sound: Frequency=3 MHz, Sing-around technique in a fixed-path interferometer; for mass density: Vibrating tube method

CCCCN [1-butanamine]
speed of sound ([1]; 293.15 K): 1268.3 ± 1.4 m/s | mass density ([1]; 293.15 K): 737.048 ± 1.8 kg/m3 | speed of sound ([1]; 298.15 K): 1246 ± 1.4 m/s | mass density ([1]; 298.15 K): 732.231 ± 1.8 kg/m3 | speed of sound ([1]; 303.15 K): 1224.6 ± 1.4 m/s | mass density ([1]; 303.15 K): 727.452 ± 1.8 kg/m3 | refractive index ([2]; 293.15 K): 1.4006 ± 0.0042 | refractive index ([2]; 298.15 K): 1.39786 ± 0.0042 | refractive index ([2]; 303.15 K): 1.395 ± 0.0042

CCCCCCN [1-hexanamine]
speed of sound ([1]; 293.15 K): 1324 ± 1.1 m/s | mass density ([1]; 293.15 K): 764.423 ± 1.8 kg/m3 | speed of sound ([1]; 298.15 K): 1303.6 ± 1.1 m/s | mass density ([1]; 298.15 K): 760.073 ± 1.8 kg/m3 | speed of sound ([1]; 303.15 K): 1283.6 ± 1.1 m/s | mass density ([1]; 303.15 K): 755.848 ± 1.8 kg/m3 | refractive index ([2]; 298.15 K): 1.41577 ± 0.0043

CCCCCCN [1-hexanamine] + CN(C)C=O
refractive index ([3]; x2 = 0.0506): 1.41613 ± 0.0043 | refractive index ([3]; x2 = 0.1725): 1.41707 ± 0.0043 | refractive index ([3]; x2 = 0.2548): 1.41779 ± 0.0043 | refractive index ([3]; x2 = 0.3476): 1.4187 ± 0.0043 | refractive index ([3]; x2 = 0.4461): 1.4198 ± 0.0043 | refractive index ([3]; x2 = 0.55): 1.42107 ± 0.0043 | refractive index ([3]; x2 = 0.6558): 1.42257 ± 0.0043 | refractive index ([3]; x2 = 0.7573): 1.42411 ± 0.0043 | refractive index ([3]; x2 = 0.8492): 1.42564 ± 0.0043 | refractive index ([3]; x2 = 0.953): 1.42747 ± 0.0043 | speed of sound ([4]; x2 = 0.0506): 1307.1 ± 1.1 m/s | speed of sound ([4]; x2 = 0.0992): 1310.8 ± 1.1 m/s | speed of sound ([4]; x2 = 0.1725): 1316.7 ± 1.1 m/s | speed of sound ([4]; x2 = 0.2548): 1324.2 ± 1.2 m/s | speed of sound ([4]; x2 = 0.3476): 1333.7 ± 1.2 m/s | speed of sound ([4]; x2 = 0.4461): 1345.5 ± 1.2 m/s | speed of sound ([4]; x2 = 0.55): 1360.1 ± 1.2 m/s | speed of sound ([4]; x2 = 0.6022): 1368.3 ± 1.2 m/s | speed of sound ([4]; x2 = 0.7056): 1387.1 ± 1.2 m/s | speed of sound ([4]; x2 = 0.7996): 1406.8 ± 1.2 m/s | speed of sound ([4]; x2 = 0.8492): 1418.4 ± 1.2 m/s | speed of sound ([4]; x2 = 0.8982): 1430.4 ± 1.2 m/s | speed of sound ([4]; x2 = 0.953): 1444.7 ± 1.2 m/s | mass density ([4]; x2 = 0.0506): 765.582 ± 1.9 kg/m3 | mass density ([4]; x2 = 0.0992): 771.096 ± 1.9 kg/m3 | mass density ([4]; x2 = 0.1725): 779.897 ± 1.9 kg/m3 | mass density ([4]; x2 = 0.2548): 790.546 ± 1.9 kg/m3 | mass density ([4]; x2 = 0.3476): 803.611 ± 1.9 kg/m3 | mass density ([4]; x2 = 0.4461): 818.861 ± 2 kg/m3 | mass density ([4]; x2 = 0.55): 836.751 ± 2 kg/m3 | mass density ([4]; x2 = 0.6022): 846.551 ± 2.1 kg/m3 | mass density ([4]; x2 = 0.7056): 867.688 ± 2.1 kg/m3 | mass density ([4]; x2 = 0.7996): 889.217 ± 2.2 kg/m3 | mass density ([4]; x2 = 0.8492): 901.602 ± 2.2 kg/m3 | mass density ([4]; x2 = 0.8982): 914.549 ± 2.2 kg/m3 | mass density ([4]; x2 = 0.953): 929.99 ± 2.3 kg/m3

CCCCNCCCC [dibutylamine]
speed of sound ([1]; 293.15 K): 1261.1 ± 1.1 m/s | mass density ([1]; 293.15 K): 759.695 ± 1.8 kg/m3 | speed of sound ([1]; 298.15 K): 1241.5 ± 1.1 m/s | mass density ([1]; 298.15 K): 755.525 ± 1.8 kg/m3 | speed of sound ([1]; 303.15 K): 1222.5 ± 1.1 m/s | mass density ([1]; 303.15 K): 751.458 ± 1.8 kg/m3 | refractive index ([2]; 293.15 K): 1.41724 ± 0.0043 | refractive index ([2]; 298.15 K): 1.41488 ± 0.0043 | refractive index ([2]; 303.15 K): 1.41253 ± 0.0043

CCCCNCCCC [dibutylamine] + CN(C)C=O
refractive index ([3]; x2 = 0.1038): 1.41553 ± 0.0043 | refractive index ([3]; x2 = 0.2076): 1.41628 ± 0.0043 | refractive index ([3]; x2 = 0.3608): 1.41761 ± 0.0043 | refractive index ([3]; x2 = 0.4897): 1.419 ± 0.0043 | refractive index ([3]; x2 = 0.5933): 1.42034 ± 0.0043 | refractive index ([3]; x2 = 0.688): 1.42178 ± 0.0043 | refractive index ([3]; x2 = 0.7709): 1.42323 ± 0.0043 | refractive index ([3]; x2 = 0.8398): 1.42459 ± 0.0043 | refractive index ([3]; x2 = 0.8989): 1.42587 ± 0.0043 | refractive index ([3]; x2 = 0.9497): 1.42706 ± 0.0043 | refractive index ([3]; x2 = 0.9738): 1.42765 ± 0.0043 | speed of sound ([4]; x2 = 0.0642): 1246.4 ± 1.1 m/s | speed of sound ([4]; x2 = 0.1134): 1250.5 ± 1.1 m/s | speed of sound ([4]; x2 = 0.1647): 1255 ± 1.1 m/s | speed of sound ([4]; x2 = 0.2121): 1259.5 ± 1.1 m/s | speed of sound ([4]; x2 = 0.2734): 1266.1 ± 1.1 m/s | speed of sound ([4]; x2 = 0.3213): 1271.6 ± 1.2 m/s | speed of sound ([4]; x2 = 0.4114): 1283.5 ± 1.2 m/s | speed of sound ([4]; x2 = 0.4526): 1289.7 ± 1.2 m/s | speed of sound ([4]; x2 = 0.5072): 1298.6 ± 1.2 m/s | speed of sound ([4]; x2 = 0.5574): 1307.9 ± 1.2 m/s | speed of sound ([4]; x2 = 0.5996): 1316.3 ± 1.2 m/s | speed of sound ([4]; x2 = 0.6514): 1328.1 ± 1.2 m/s | speed of sound ([4]; x2 = 0.6869): 1336.8 ± 1.2 m/s | speed of sound ([4]; x2 = 0.7361): 1350.4 ± 1.2 m/s | speed of sound ([4]; x2 = 0.7904): 1367.5 ± 1.3 m/s | speed of sound ([4]; x2 = 0.8418): 1385.9 ± 1.3 m/s | speed of sound ([4]; x2 = 0.8921): 1406.1 ± 1.3 m/s | speed of sound ([4]; x2 = 0.9471): 1431 ± 1.4 m/s | mass density ([4]; x2 = 0.0642): 761.171 ± 1.8 kg/m3 | mass density ([4]; x2 = 0.1134): 765.782 ± 1.9 kg/m3 | mass density ([4]; x2 = 0.1647): 770.882 ± 1.9 kg/m3 | mass density ([4]; x2 = 0.2121): 775.872 ± 1.9 kg/m3 | mass density ([4]; x2 = 0.2734): 782.835 ± 1.9 kg/m3 | mass density ([4]; x2 = 0.3213): 788.624 ± 1.9 kg/m3 | mass density ([4]; x2 = 0.4114): 800.702 ± 1.9 kg/m3 | mass density ([4]; x2 = 0.4526): 806.766 ± 2 kg/m3 | mass density ([4]; x2 = 0.5072): 815.344 ± 2 kg/m3 | mass density ([4]; x2 = 0.5574): 823.977 ± 2 kg/m3 | mass density ([4]; x2 = 0.5996): 831.688 ± 2 kg/m3 | mass density ([4]; x2 = 0.6514): 842.013 ± 2.1 kg/m3 | mass density ([4]; x2 = 0.6869): 849.571 ± 2.1 kg/m3 | mass density ([4]; x2 = 0.7361): 860.924 ± 2.1 kg/m3 | mass density ([4]; x2 = 0.7904): 874.714 ± 2.1 kg/m3 | mass density ([4]; x2 = 0.8418): 889.103 ± 2.2 kg/m3 | mass density ([4]; x2 = 0.8921): 904.666 ± 2.2 kg/m3 | mass density ([4]; x2 = 0.9471): 923.65 ± 2.3 kg/m3

CN(C)C=O [dimethylformamide]
speed of sound ([1]; 293.15 K): 1476.8 ± 1.2 m/s | mass density ([1]; 293.15 K): 948.881 ± 2.3 kg/m3 | speed of sound ([1]; 298.15 K): 1457.2 ± 1.2 m/s | mass density ([1]; 298.15 K): 944.081 ± 2.3 kg/m3 | speed of sound ([1]; 303.15 K): 1438.2 ± 1.2 m/s | mass density ([1]; 303.15 K): 939.361 ± 2.3 kg/m3 | refractive index ([2]; 293.15 K): 1.43055 ± 0.0043 | refractive index ([2]; 298.15 K): 1.42828 ± 0.0043 | refractive index ([2]; 303.15 K): 1.42603 ± 0.0043

CCCNCCC [dipropylamine]
speed of sound ([1]; 293.15 K): 1209.4 ± 1.4 m/s | mass density ([1]; 293.15 K): 738.194 ± 1.8 kg/m3 | speed of sound ([1]; 298.15 K): 1187.7 ± 1.4 m/s | mass density ([1]; 298.15 K): 733.618 ± 1.8 kg/m3 | speed of sound ([1]; 303.15 K): 1167.2 ± 1.4 m/s | mass density ([1]; 303.15 K): 729.098 ± 1.8 kg/m3 | refractive index ([2]; 293.15 K): 1.40432 ± 0.0042 | refractive index ([2]; 298.15 K): 1.40139 ± 0.0042 | refractive index ([2]; 303.15 K): 1.39883 ± 0.0042
